Measured values from US7064207B2, “Androgen receptor antagonists” (Warner Lambert Company LLC, priority 2003, dated 2006).

Target: T1, androgen receptor (Homo sapiens, UniProt P10275)
T1 sequence (P10275 1-920 Q868H): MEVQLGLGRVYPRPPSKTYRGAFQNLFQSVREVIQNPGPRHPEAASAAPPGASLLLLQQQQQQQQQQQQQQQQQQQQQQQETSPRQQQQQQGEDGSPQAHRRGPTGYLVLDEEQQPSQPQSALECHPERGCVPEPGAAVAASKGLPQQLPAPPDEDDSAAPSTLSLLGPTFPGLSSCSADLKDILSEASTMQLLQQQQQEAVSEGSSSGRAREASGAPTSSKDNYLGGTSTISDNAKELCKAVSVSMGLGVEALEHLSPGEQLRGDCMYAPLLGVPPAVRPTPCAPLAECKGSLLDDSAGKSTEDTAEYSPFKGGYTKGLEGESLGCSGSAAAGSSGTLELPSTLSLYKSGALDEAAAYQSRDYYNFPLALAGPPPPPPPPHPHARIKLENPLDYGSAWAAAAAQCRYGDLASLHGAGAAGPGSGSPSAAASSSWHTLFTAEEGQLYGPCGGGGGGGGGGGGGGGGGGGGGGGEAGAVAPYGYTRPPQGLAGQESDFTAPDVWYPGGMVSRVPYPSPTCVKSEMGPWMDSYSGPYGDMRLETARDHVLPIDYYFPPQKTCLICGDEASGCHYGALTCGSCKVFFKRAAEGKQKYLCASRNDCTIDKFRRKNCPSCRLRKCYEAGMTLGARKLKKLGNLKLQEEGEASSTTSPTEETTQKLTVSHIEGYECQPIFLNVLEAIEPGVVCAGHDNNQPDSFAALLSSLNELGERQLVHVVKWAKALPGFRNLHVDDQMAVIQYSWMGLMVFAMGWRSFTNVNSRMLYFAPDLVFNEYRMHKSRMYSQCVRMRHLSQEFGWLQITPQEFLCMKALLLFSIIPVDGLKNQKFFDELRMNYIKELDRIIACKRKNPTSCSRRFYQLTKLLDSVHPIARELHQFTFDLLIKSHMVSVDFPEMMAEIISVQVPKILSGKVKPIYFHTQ
Test: AR Antagonist Cell Assay (MMTV-luciferase reporter, inhibition of DHT induction)
Assay type: cell-based
Conditions: MDA-MB453-MMTV clone 54-19 cells, 100 pM DHT, 17 hr, luciferase; read-out: Cell IC50
Description: The compounds ability to antagonize the effects of androgen on the androgen receptor were determined in the protocol described immediately below.
Experimental Procedure for AR Antagonist Cell Assay
Cell line: MDA-MB453-MMTV clone 54–19. This cell line is a stable transfected cell line with MDA-MB453 cell background (human breast tumor cell expressing high level of androgen receptor). A MMTV minimal promoter containing ARE was first cloned in front of a firefly luciferase reporter gene. Then the cascade was cloned into transfection vector pUV120puro. Electroporation method was used for transfecting MDA-MB-453 cell. Puromycin resistant stable cell line was selected. Cell Culture Media and Reagents:
Culture medium: DMEM (high glucose, Gibco cat #: 11960-044), 10% FBS, and 1% L-glutamine
Plating medium: DMEM (phenol red free), 10% charcoal treated HyClone serum, 1% L-glutamine
Assay medium: DMEM (phenol red free), 1% charcoal treated HyClone serum, 1% L-glutamine, and 1% penicillin/streptomycin
3× luciferase buffer: 2% beta-mercaptoethanol, 0.6% ATP, 0.0135% luciferine in cell lysis buffer
• 1. Cells are maintained in culture medium, splitting cells when they reach 80–90% confluence • 2. To test compounds, 10,000 cells/well are plated to opaque 96 cell culture plate in 100 ul/well plating medium, culture for overnight at 37° C. in cell culture incubator • 3. Carefully remove plating medium, then add 80 ul/well of pre-warmed assay medium, add 10 ul/well testing compound (final concentration at 10 uM or 1 uM), incubate at 37° C. for 30 minutes • 4. Add 10 ul/well freshly prepared DHT (final concentration at 100 pM) to each well, incubate at 37° C. for 17 hr (overnight) • 5. Add 50 ul/well 3× luciferase buffer, incubate at room temperature for 5 minutes, then count on Luminometer The fold induction over background by 100 pM DHT in the absence of testing compounds is standardized as 100% and experimental result is expressed as percentage of inhibition by testing compounds.

| IC50 [nM] | Structure (SMILES) |
| --- | --- |
| 2240 | COC(=O)[C@@H]1CCCN1S(=O)(=O)c1ccc2[nH]c(=O)cc(C(F)(F)F)c2c1 [Example 19, 1-(2-Oxo-4-trifluoromethyl-1,2-dihydroquinoline-6-sulfonyl)pyrrolidine-2-carboxylic acid methylester] |
| > 10000 | O=c1cc(C(F)(F)F)c2cc(S(=O)(=O)N3CCN(CCOCCO)CC3)ccc2[nH]1 [Example 20, 6-{4-[2-(2-Hydroxyethoxy)-ethyl]piperazine-1-sulfonyl}-4-trifluoromethyl-1H-quinolin-2-one] |
| 480 | COc1cc2c(cc1OC)CN(S(=O)(=O)c1ccc3[nH]c(=O)cc(C(F)(F)F)c3c1)CC2 [Example 21, 6-(6,7-Dimethoxy-3,4-dihydro-1H-isoquinoline-2-sulfonyl)-4-trifluoromethyl-1H-quinolin-2-one] |
| 1900 | O=c1cc(C(F)(F)F)c2cc(S(=O)(=O)N3CCC4(CC3)OCCO4)ccc2[nH]1 [Example 22, 6-(1,4-Dioxa-8-azaspiro[4.5]decane-8-sulfonyl)-4-trifluoromethyl-1H-quinolin-2-one] |
| > 10000 | O=C(CN1CCN(S(=O)(=O)c2ccc3[nH]c(=O)cc(C(F)(F)F)c3c2)CC1)N1CCCC1 [Example 23, 6-[4-(2-Oxo-2-pyrrolidin-1-ylethyl)piperazine-1-sulfonyl]-4-trifluoromethyl-1H-quinolin-2-one] |
| 960 | CC1CCN(S(=O)(=O)c2ccc3[nH]c(=O)cc(C(F)(F)F)c3c2)CC1 [Example 24, 6-(4-Methylpiperidine-1-sulfonyl)-4-trifluoromethyl-1H-quinolin-2-one] |
| 3540 | O=c1cc(C(F)(F)F)c2cc(S(=O)(=O)N3CCCC(CO)C3)ccc2[nH]1 (stereo not shown) [Example 25, 6-(3-Hydroxymethylpiperidine-1-sulfonyl)-4-trifluoromethyl-1H-quinolin-2-one] |
| 160 | O=c1cc(C(F)(F)F)c2cc(S(=O)(=O)N3CCSC3)ccc2[nH]1 [Example 26, 6-(Thiazolidine-3-sulfonyl)-4-trifluoromethyl-1H-quinolin-2-one] |
| > 10000 | O=c1cc(C(F)(F)F)c2cc(S(=O)(=O)N3CCN(c4ccncc4)CC3)ccc2[nH]1 [Example 27, 6-(4-Pyridin-4-ylpiperazine-1-sulfonyl)-4-trifluoromethyl-1H-quinolin-2-one] |
| > 10000 | O=c1cc(C(F)(F)F)c2cc(S(=O)(=O)N3CCN(c4ccccc4)CC3)ccc2[nH]1 [Example 28, 6-(4-Phenylpiperazine-1-sulfonyl)-4-trifluoromethyl-1H-quinolin-2-one] |
| > 10000 | O=c1cc(C(F)(F)F)c2cc(S(=O)(=O)N3CCCCC3CCO)ccc2[nH]1 (stereo not shown) [Example 29, 6-[2-(2-Hydroxyethyl)-piperidine-1-sulfonyl]-4-trifluoromethyl-1H-quinolin-2-one] |
| 440 | O=c1cc(C(F)(F)F)c2cc(S(=O)(=O)N3CCCC4CCCCC43)ccc2[nH]1 (stereo not shown) [Example 31, 6-(Octahydroquinoline-1-sulfonyl)-4-trifluoromethyl-1H-quinolin-2-one] |
| 2660 | O=c1cc(C(F)(F)F)c2cc(S(=O)(=O)N3CCN(CCc4cccs4)CC3)ccc2[nH]1 [Example 32, 6-[4-(2-Thiophen-2-ylethyl)piperazine-1-sulfonyl]-4-trifluoromethyl-1H-quinolin-2-one] |
| 310 | O=c1cc(C(F)(F)F)c2cc(S(=O)(=O)N3CCCC3)ccc2[nH]1 [Example 33, 6-(Pyrrolidine-1-sulfonyl)-4-trifluoromethyl-1H-quinolin-2-one] |
| 180 | O=c1cc(C(F)(F)F)c2cc(S(=O)(=O)N3CCCCCC3)ccc2[nH]1 [Example 36, 6-(Azepane-1-sulfonyl)-4-trifluoromethyl-1H-quinolin-2-one] |
| > 10000 | O=c1cc(C(F)(F)F)c2cc(S(=O)(=O)N3CCN(C4CCCC4)CC3)ccc2[nH]1 [Example 38, 6-(4-Cyclopentylpiperazine-1-sulfonyl)-4-trifluoromethyl-1H-quinolin-2-one] |
| > 10000 | O=c1cc(C(F)(F)F)c2cc(S(=O)(=O)N3CCN(c4ccccn4)CC3)ccc2[nH]1 [Example 40, 6-(4-Pyridin-2-ylpiperazine-1-sulfonyl)-4-trifluoromethyl-1H-quinolin-2-one] |
| 3600 | O=c1cc(C(F)(F)F)c2cc(S(=O)(=O)N3CCCC3CN3CCCC3)ccc2[nH]1 (stereo not shown) [Example 41, 6-(2-Pyrrolidin-1-ylmethyl-pyrrolidine-1-sulfonyl)-4-trifluoromethyl-1H-quinolin-2-one] |
| > 10000 | O=c1cc(C(F)(F)F)c2cc(S(=O)(=O)N3CCN(c4cnccn4)CC3)ccc2[nH]1 [Example 42, 6-(2,3,5,6-Tetrahydro-[1,2′]bipyrazinyl-4-sulfonyl)-4-trifluoromethyl-1H-quinolin-2-one] |

| Structure (SMILES) | IC50 [nM] |
| --- | --- |
| O=c1cc(C(F)(F)F)c2cc(S(=O)(=O)N3CCCC3CO)ccc2[nH]1 (stereo not shown) [Example 30, 6-(2-Hydroxymethyl-pyrrolidine-1-sulfonyl)-4-trifluoromethyl-1H-quinolin-2-one] | 2170 |
| CC1CCCCN1S(=O)(=O)c1ccc2[nH]c(=O)cc(C(F)(F)F)c2c1 (stereo not shown) [Example 37, 6-(2-Methylpiperidine-1-sulfonyl)-4-trifluoromethyl-1H-quinolin-2-one] | 1550 |
| O=c1cc(C(F)(F)F)c2cc(S(=O)(=O)N3CCC3)ccc2[nH]1 [Example 39, 6-(Azetidine-1-sulfonyl)-4-trifluoromethyl-1H-quinolin-2-one] | 430 |
